Data on nine compounds can be found in US12540143B2, “Methods and compositions for targeted protein degradation” (Ranok Therapeutics (Hangzhou) Co. Ltd., priority 2019, dated 2026).

The target in one series is T1, BRD4 (Homo sapiens, UniProt O60885).
T1 construct: endogenous in cells; host or cells: MV4-11
Nature of the series: BRD4 Degradation Flow Cytometry Assay in MV4-11 cells. Type of series: cell-based. Particulars: MV4-11 cells; for Percentage BRD4 degradation vs untreated / BRD4 (% of control): 24 hr; for Percentage BRD4 degradation vs untreated: highest degradation percentage observed at concentrations between 40-1000 nM; for BRD4 degradation (in words): flow cytometry. As to the method:
Protein Degradation Flow Cytometry
(§1) MV4-11 cells were plated in a 24-well tissue culture plate at a density of 350,000 cells/450 μL/well and incubated in 37° C./5% CO2 for 1 hr. Cells were then treated with compounds at various concentrations and incubated in 37° C./5% CO2 for 24 hr. Cells were harvested, washed once, counted and 200 μL of 1% paraformaldehyde/PBS was added and incubated for 15 min at room temperature. 200 μL of 1×PBS/0.4% Triton X-100 was added and incubated for 15 min at 4° C. Cells were washed three times and resuspended in 50 μL of 1×PBS/0.2% Triton X-100. 2 μL/10^6 cells of anti-BRD4 antibody (ABCAM, #128874) was added and mixed by pipetting up and down. Cells were incubated for 30 min at room temperature in the dark, washed three times and resuspended in 50 μL of 1×PBS/0.2% Triton X-100. Goat anti-rabbit IgG H&L antibody (1:2000 dilution) was added and mixed by pipetting up and down and incubated for 30 min at room temperature in the dark. Finally, cells were washed three times and resuspended in 200 μL of PBS for flow cytometric analysis.
On the technique in general: A flow cytometer gives signals particle by particle.

A further series deals with MV4-11 cells. The experiment in a line: MV4-11 Cytotoxicity Assay. Particulars: Homo sapiens, MV4-11; 72 hr, CCK-8; read-out: MV4-11 cytotoxicity. Type of series: cell-based, human.
Series [1] has as its system MV4-11 acute myeloid leukemia xenograft. The experiment in a line: MV4-11 AML xenograft model in mice. The note with it: 25 mg/kg intraperitoneal 1×/day. On the procedure: MV4-11 cells were plated in a 96-well tissue culture plate at a density of 4,500 cells/90 μL/well and incubated at 37° C./5% CO2 for 24 hr. Cells were then treated with compounds at various concentrations (a 10-point, 3-fold serial dilution series starting at 20 μM) with a final concentration of 0.5% DMSO/well and then incubated in 37° C./5% CO2 for 72 hr. 10 μL the cell proliferation reagent CCK-8 (WST-8) was added into each well and incubated at 37° C./5% CO2 for 3-4 hr and the absorbance at 450 nm measured with an En Vision Plate Reader.
MV4-11 acute myeloid leukemia and SU-DHL-4 diffuse large B-cell lymphoma (ATCC, #CRL-2957) cells were cultured in medium supplemented with 10% fetal bovine serum at 37° C./5% CO2. 5×10^6 MV-4-11 or 1×10^7 SU-DHL-4 cells were collected and re-suspended in 0.1 mL of serum-free media with Matrigel (1:1 v/v) per mouse for subcutaneous inoculation in isoflurane anesthetized male BALB/c nude or C.B-17 scid mice, respectively (treated in accordance with AAALAC animal welfare guidelines). When the average tumor volumes reached 100-200 mm^3, tumor volume outliers were removed and the remaining animals randomly divided into groups of 6-8 with similar average tumor volumes in each group. […] The appearance and behavior of each mouse was observed and recorded daily. Body weights and tumor volumes were measured and recorded every 2-4 days and the results were expressed as group means±SEM. Pairwise statistical comparisons between groups were performed by one-way ANOVA, and p<0.05 was considered statistically significant.

In series [2] the test system is SU-DHL-4 diffuse large B-cell lymphoma xenograft. The experiment in a line: SU-DHL-4 DLBCL xenograft model in mice. On the procedure: 10 μL the cell proliferation reagent CCK-8 (WST-8) was added into each well and incubated at 37° C./5% CO2 for 3-4 hr and the absorbance at 450 nm measured with an En Vision Plate Reader.
5×10^6 MV-4-11 or 1×10^7 SU-DHL-4 cells were collected and re-suspended in 0.1 mL of serum-free media with Matrigel (1:1 v/v) per mouse for subcutaneous inoculation in isoflurane anesthetized male BALB/c nude or C.B-17 scid mice, respectively (treated in accordance with AAALAC animal welfare guidelines). When the average tumor volumes reached 100-200 mm^3, tumor volume outliers were removed and the remaining animals randomly divided into groups of 6-8 with similar average tumor volumes in each group. […] Animals were intravenously dosed at 25 mg/kg, 50 mg/kg or 100 mg/kg 1×/week for 3 or 4 weeks. The appearance and behavior of each mouse was observed and recorded daily. Body weights and tumor volumes were measured and recorded every 2-4 days and the results were expressed as group means±SEM. Pairwise statistical comparisons between groups were performed by one-way ANOVA, and p<0.05 was considered statistically significant.

The target of a further series is T2, BRD2 (Homo sapiens, UniProt P25440).
T2 construct: endogenous in cells; host or cells: MV4-11
T2 sequence (P25440 whole entry): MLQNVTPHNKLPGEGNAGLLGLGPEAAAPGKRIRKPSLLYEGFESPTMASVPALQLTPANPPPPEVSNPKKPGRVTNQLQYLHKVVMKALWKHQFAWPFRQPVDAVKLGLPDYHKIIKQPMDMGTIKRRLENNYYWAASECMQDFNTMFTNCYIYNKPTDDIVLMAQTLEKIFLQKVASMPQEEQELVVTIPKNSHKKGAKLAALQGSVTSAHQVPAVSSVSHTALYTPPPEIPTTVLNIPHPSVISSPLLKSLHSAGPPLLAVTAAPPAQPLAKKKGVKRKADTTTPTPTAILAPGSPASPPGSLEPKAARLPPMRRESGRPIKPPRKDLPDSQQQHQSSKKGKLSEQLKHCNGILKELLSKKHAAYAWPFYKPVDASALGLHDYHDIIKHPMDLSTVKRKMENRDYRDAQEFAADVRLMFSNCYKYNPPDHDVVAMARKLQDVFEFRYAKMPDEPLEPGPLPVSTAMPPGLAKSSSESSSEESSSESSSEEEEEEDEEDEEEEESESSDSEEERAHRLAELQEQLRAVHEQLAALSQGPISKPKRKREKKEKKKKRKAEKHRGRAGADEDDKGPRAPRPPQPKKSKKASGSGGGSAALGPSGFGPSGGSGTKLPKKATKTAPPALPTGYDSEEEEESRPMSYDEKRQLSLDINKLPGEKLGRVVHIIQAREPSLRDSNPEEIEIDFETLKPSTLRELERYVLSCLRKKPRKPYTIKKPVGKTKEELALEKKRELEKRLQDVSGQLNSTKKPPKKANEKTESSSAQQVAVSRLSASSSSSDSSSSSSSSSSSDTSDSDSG
Nature of the series: BET Protein Family Degradation Flow Cytometry Assay (BRD2) in MV4-11 cells. In kind it is cell-based. The note with it: 24 hr. On the procedure: as §1
(§2) Similar western blotting experiments of for BRD2 and BRD3 were performed in MV4-11 cells using anti-BRD2 (Cell Signaling Technology, #139690) and anti-BRD3 (Cell Signaling Technology, #50818).

In a further series the target is T3, BRD3 (Homo sapiens, UniProt Q15059).
T3 construct: endogenous in cells; host or cells: MV4-11
T3 sequence (Q15059 whole entry): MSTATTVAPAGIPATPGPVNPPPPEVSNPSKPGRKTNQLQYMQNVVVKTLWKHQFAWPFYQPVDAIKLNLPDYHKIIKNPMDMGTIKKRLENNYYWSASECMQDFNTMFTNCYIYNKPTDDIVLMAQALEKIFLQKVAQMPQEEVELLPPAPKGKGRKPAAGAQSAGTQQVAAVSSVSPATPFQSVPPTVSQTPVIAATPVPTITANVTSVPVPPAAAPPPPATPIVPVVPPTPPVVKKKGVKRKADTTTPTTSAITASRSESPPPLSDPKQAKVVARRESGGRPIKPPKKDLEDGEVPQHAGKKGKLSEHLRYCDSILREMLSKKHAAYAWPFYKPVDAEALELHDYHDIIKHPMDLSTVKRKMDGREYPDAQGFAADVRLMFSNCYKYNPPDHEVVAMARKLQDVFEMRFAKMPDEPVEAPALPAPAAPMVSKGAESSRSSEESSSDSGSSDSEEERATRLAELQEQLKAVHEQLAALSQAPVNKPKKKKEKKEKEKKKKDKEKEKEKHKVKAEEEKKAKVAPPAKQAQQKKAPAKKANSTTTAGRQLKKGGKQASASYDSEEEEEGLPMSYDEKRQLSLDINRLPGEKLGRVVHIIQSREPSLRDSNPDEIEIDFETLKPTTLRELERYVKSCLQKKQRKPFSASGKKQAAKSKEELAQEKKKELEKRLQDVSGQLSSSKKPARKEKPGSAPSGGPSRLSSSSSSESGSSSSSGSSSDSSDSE
The experiment in a line: BET Protein Family Degradation Flow Cytometry Assay (BRD3) in MV4-11 cells. Type of series: cell-based. Particulars: 24 hr. As to the method:
as §1, §2

Setting [3] is: 100 mg/kg intravenous 1×/week, after 4 weeks of dosing.

For `CCc1cc(-c2nnc(O)n2-c2ccc(CN3CCN(CC4CCN(C(=O)C[C@@H]5N=C(c6ccc(Cl)cc6)c6c(sc(C)c6C)-n6c(C)nnc65)CC4)CC3)cc2)c(O)cc1O` [Compound 1, 2-((6S)-4-(4-chlorophenyl)-2,3,9-trimethyl-6H-thieno[3,2-f][1,2,4]triazolo[4,3-a][1,4]diazepin-6-yl)-1-(4-((4-(4-(3-(5-ethyl-2,4-dihydroxyphenyl)-5-hydroxy-4H-1,2,4-triazol-4-yl)benzyl)piperazin-1-yl)methyl)piperidin-1-yl)ethanone], the “Percentage BRD4 degradation vs untreated” value at BRD4 is on record as “A (Degradation > 50%)”.

For the compound `Cc1cc(-c2nnc(O)n2-c2ccc(CN3CCN(CC4CCN(C(=O)C[C@@H]5N=C(c6ccc(Cl)cc6)c6c(sc(C)c6C)-n6c(C)nnc65)CC4)CC3)cc2)c(O)cc1O` [Compound 9, 2-((6S)-4-(4-chlorophenyl)-2,3,9-trimethyl-6H-thieno[3,2-f][1,2,4]triazolo[4,3-a][1,4]diazepin-6-yl)-1-(4-((4-(4-(3-(2,4-dihydroxy-5-methylphenyl)-5-hydroxy-4H-1,2,4-triazol-4-yl)benzyl)piperazin-1-yl)methyl)piperidin-1-yl)ethanone, trifluoroacetic acid], the “Percentage BRD4 degradation vs untreated” value at BRD4 is “B (10% < Degradation = 10-50%)”. In addition, the IC50 in the series on MV4-11 cells was less than 100 nM.

For the compound `CC(=O)N1CCC(CN2CCN(Cc3ccc(-n4c(O)nnc4-c4cc(C(C)C)c(O)cc4O)cc3)CC2)CC1` [HSP90 binder, 1-(4-((4-(4-(3-(2,4-dihydroxy-5-isopropylphenyl)-5-hydroxy-4H-1,2,4-triazol-4-yl)benzyl)piperazin-1-yl)methyl)piperidin-1-yl)ethan-1-one, reference compound], on BRD4, the “Percentage BRD4 degradation vs untreated” value is “C (Degradation < 10%)” and the “BRD4 degradation (in words)” value was “no substantial BRD4 degradation was observed”.

Consider `Cc1sc2c(c1C)C(c1ccc(Cl)cc1)=N[C@@H](CC(=O)NCCc1ccc(-n3c(O)nnc3-c3cc(C(C)C)c(O)cc3O)cc1)c1nnc(C)n1-2` [Compound 39, 2-((6S)-4-(4-chlorophenyl)-2,3,9-trimethyl-6H-thieno[3,2-f][1,2,4]triazolo[4,3-a][1,4]diazepin-6-yl)-N-(4-(3-(2,4-dihydroxy-5-isopropylphenyl)-5-hydroxy-4H-1,2,4-triazol-4-yl)phenethyl)acetamide], for which the “Percentage BRD4 degradation vs untreated” value on BRD4 is reported as “C (Degradation < 10%)”. Besides, the IC50 in the series on MV4-11 cells was less than 100 nM.

As to (+)-JQ1 [reference compound], the “BRD4 degradation (in words)” value on BRD4 is “no substantial BRD4 degradation was observed”. For the same compound, the tumor growth inhibition result in series [1] is on record as “moderate tumor growth inhibition”.

For `Cc1sc2c(c1C)C(c1ccc(Cl)cc1)=N[C@@H](CC(=O)NCC(=O)NCC1CCN(C(=O)C3CCN(Cc4ccc(-n5c(O)nnc5-c5cc(C(C)C)c(O)cc5O)cc4)CC3)CC1)c1nnc(C)n1-2` [Compound 46, (S)-2-(4-(4-chlorophenyl)-2,3,9-trimethyl-6H-thieno[3,2-f][1,2,4]triazolo[4,3-a][1,4]diazepin-6-yl)-N-(2-(((1-(1-(4-(3-(2,4-dihydroxy-5-isopropylphenyl)-5-hydroxy-4H-1,2,4-triazol-4-yl)benzyl)piperidine-4-carbonyl)piperidin-4-yl)methyl)amino)-2-oxoethyl)acetamide, trifluoroacetic acid], the “Percentage BRD4 degradation vs untreated” value on BRD4 was “A (Degradation > 50%)”. The IC50 in the series on MV4-11 cells is less than 100 nM.

Consider `CCc1cc(-c2nnc(C(=O)NCC(F)(F)F)n2-c2ccc(CN3CCN(CC4CCN(C(=O)C[C@@H]5N=C(c6ccc(Cl)cc6)c6c(sc(C)c6C)-n6c(C)nnc65)CC4)CC3)cc2)c(O)cc1O.Cl` [Compound 78, 4-(4-((4-((1-(2-((6S)-4-(4-chlorophenyl)-2,3,9-trimethyl-6H-thieno[3,2-f][1,2,4]triazolo[4,3-a][1,4]diazepin-6-yl)acetyl)piperidin-4-yl)methyl)piperazin-1-yl)methyl)phenyl)-5-(5-ethyl-2,4-dihydroxyphenyl)-N-(2,2,2-trifluoroethyl)-4H-1,2,4-triazole-3-carboxamide hydrochloride], for which, in series [2] (setting [3]), the “tumor growth inhibition (FIG. 4a)” value is “significant tumor growth inhibition” and the “tumor vs control (T/C) value” is given as 28%. The “animal deaths and body weights (FIG. 4b)” value in series [2] (any dose level, SU-DHL-4 xenograft) is reported as “No animal deaths or significant effects on body weights were observed”.

Regarding `Cc1sc2c(c1C)C(c1ccc(Cl)cc1)=N[C@@H](CC(=O)NCC(=O)NCC1CCN(C(=O)C3CCN(Cc4ccc(-n5c(O)nnc5-c5cc(C(C)C)c(O)cc5O)cc4)CC3)C1)c1nnc(C)n1-2` (stereo partly drawn) [Compound 47, 2-((S)-4-(4-chlorophenyl)-2,3,9-trimethyl-6H-thieno[3,2-f][1,2,4]triazolo[4,3-a][1,4]diazepin-6-yl)-N-(2-(((1-(1-(4-(3-(2,4-dihydroxy-5-isopropylphenyl)-5-hydroxy-4H-1,2,4-triazol-4-yl)benzyl)piperidine-4-carbonyl)pyrrolidin-3-yl)methyl)amino)-2-oxoethyl)acetamide, trifluoroacetic acid], the “BRD4 (% of control)” value at BRD4 (100 nM) is 17.3 % of control; on BRD4 (300 nM), 9.6 % of control. Moreover, the figures for the “BRD2 (% of control)” value on BRD2 (100 nM) and at BRD2 (300 nM) were 81.2 % of control and 102.2 % of control, respectively. Further, the IC50 in the series on MV4-11 cells is less than 100 nM. The “BRD3 (% of control)” value was 95.0 % of control at BRD3 (100 nM) and 91.4 % of control on BRD3 (300 nM).

For `Cc1sc2c(c1C)C(c1ccc(Cl)cc1)=N[C@@H](CC(=O)NCCCCNC(=O)COc1cccc3c1C(=O)N(C1CCC(=O)NC1=O)C3=O)c1nnc(C)n1-2` (stereo partly shown) [dBET1], the “BRD2 (% of control)” value at BRD2 (3 nM) is reported as 96.4 % of control; at BRD2 (10 nM), 94.9 % of control; at BRD2 (30 nM), 55.1 % of control; at BRD2 (100 nM), 9.3 % of control; at BRD2 (300 nM) it was 0.5 % of control. For the same compound, the “BRD3 (% of control)” value at BRD3 (3 nM) was 89.7 % of control; at BRD3 (10 nM) it was 43.2 % of control; on BRD3 (30 nM), 14.5 % of control; at BRD3 (100 nM), 1.4 % of control; at BRD3 (300 nM), 0.3 % of control.
